The values below come from patent US9133201B2, “Inhibitors of Bruton's tyrosine kinase” (Pharmacyclics, Inc., priority 2006, dated 2015).

One assay has as its target Btk (Homo sapiens (Human), UniProt Q06187). As to the kind of experiment: Btk acellular kinase assay (TR-FRET). (Time-resolved FRET reads energy transfer from a long-lived donor to a nearby acceptor.)
A further assay concerns DHL-6 cells. As to the kind of experiment: Growth of DHL-6 cells (Alamar Blue). Conditions: 24 h or 48 h treatment. It is filed as cell-based.

Chain of Btk (Q06187 whole entry): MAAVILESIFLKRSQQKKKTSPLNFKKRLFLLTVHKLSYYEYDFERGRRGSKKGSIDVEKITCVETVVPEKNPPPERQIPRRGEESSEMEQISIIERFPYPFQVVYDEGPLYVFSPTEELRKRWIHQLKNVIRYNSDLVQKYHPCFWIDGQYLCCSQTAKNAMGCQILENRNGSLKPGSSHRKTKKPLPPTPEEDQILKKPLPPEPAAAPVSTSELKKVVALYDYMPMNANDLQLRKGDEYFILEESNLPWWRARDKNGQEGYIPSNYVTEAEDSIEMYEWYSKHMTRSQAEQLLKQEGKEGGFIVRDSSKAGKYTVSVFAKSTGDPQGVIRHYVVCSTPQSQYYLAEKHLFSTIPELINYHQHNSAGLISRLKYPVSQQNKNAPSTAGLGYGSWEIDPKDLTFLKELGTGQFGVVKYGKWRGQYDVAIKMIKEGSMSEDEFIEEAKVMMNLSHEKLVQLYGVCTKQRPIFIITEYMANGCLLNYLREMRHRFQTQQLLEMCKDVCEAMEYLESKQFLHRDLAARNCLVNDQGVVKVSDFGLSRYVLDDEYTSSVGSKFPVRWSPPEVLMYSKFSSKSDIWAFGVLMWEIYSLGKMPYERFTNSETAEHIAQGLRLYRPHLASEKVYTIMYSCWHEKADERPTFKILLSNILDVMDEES

In the case of `C/C=C/C(=O)N1CCCC(n2nc(-c3ccc(Oc4ccccc4)cc3)c3c(N)ncnc32)C1` (stereo not drawn) [Compound 5, (E)-1-(3-(4-amino-3-(4-phenoxyphenyl)-1H-pyrazolo[3,4-d]pyrimidin-1-yl)piperidin-1-yl)but-2-en-1-one], the “fold less potent than compound 4” value on Btk (Btk potency) is 28 fold.

The IC50 is the concentration at which inhibition is half-maximal. For the compound `CN(C)C/C=C/C(=O)N1CCC[C@@H](n2nc(-c3ccc(Oc4ccccc4)cc3)c3c(N)ncnc32)C1` [Compound 15, (E)-1-(3-(4-amino-3-(4-phenoxyphenyl)-1H-pyrazolo[3,4-d]pyrimidin-1-yl)piperidin-1-yl)-4-(dimethylamino)but-2-en-1-one], the “growth of DHL-6 cells” value in the assay with DHL-6 cells is recorded as “inhibit growth”. The half-inhibitory concentration (IC50) at Btk (read-out: Btk IC50, acellular TR-FRET kinase assay, [ATP]=Km) worked out at 2.5 nM.
